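Briefly, cells in 96-well plates were exposed to five compound concentrations for 48 h, and endpoints were estimated by linear interpolation. GI50 = concentration required for 50% inhibition of growth. TGI is the concentration that stops growth completely.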
Legend:
Test in all cases: NCI tumour cell line growth inhibition, 48 h
[1] = system: HCC-2998 colon
[2] = system: DU-145 prostate
[3] = system: MDA-MB-435
[4] = system: PC-3 prostate
[5] = system: CCRF-CEM leukemia
[6] = system: SW-620 colon
[7] = system: COLO 205 colon
[8] = system: BT-549 breast
[9] = system: HOP-62 NSCLC
[10] = system: KM12 colon
[11] = system: HCT-15 colon
[12] = system: HL-60(TB) leukemia
[13] = system: MOLT-4 leukemia
[14] = system: SNB-19 CNS
[15] = system: HT29 colon
[16] = system: SK-MEL-2 melanoma
[17] = system: UACC-257 melanoma
[18] = system: MCF7 breast

`O=C(CSc1nnc(-c2ccc(Cl)cc2)n1-c1ccccc1)Nc1ccc(Br)cc1` showed a GI50 [1] of over 50 µM, a TGI [1] of over 50 µM and a GI50 [2] of over 50 µM. It also gave a TGI [2] of over 50 µM, a GI50 [3] of over 50 µM and a TGI [3] of over 50 µM. It also gave a GI50 [4] of over 50 µM, a TGI [4] of over 50 µM and a GI50 [5] of over 50 µM. The TGI [5] was over 50 µM, the GI50 [6] was over 50 µM and the TGI [6] was over 50 µM. For the same molecule, the GI50 [7] was over 50 µM, the TGI [7] was over 50 µM and the GI50 [8] was over 50 µM. It also gave a TGI [8] of over 50 µM, a GI50 [9] of 1.87 µM and a TGI [9] of over 50 µM. It also gave a GI50 [10] of over 50 µM, a TGI [10] of over 50 µM and a GI50 [11] of over 50 µM. The TGI [11] was over 50 µM, the GI50 [12] was over 50 µM and the TGI [12] was over 50 µM. It also gave a GI50 [13] of over 50 µM, a TGI [13] of over 50 µM and a GI50 [14] of 1.89 µM. The TGI [14] was over 50 µM, the GI50 [15] was over 50 µM and the TGI [15] was over 50 µM. It also gave a GI50 [16] of over 50 µM, a TGI [16] of over 50 µM and a GI50 [17] of over 50 µM. It also gave a TGI [17] of over 50 µM, a GI50 [18] of over 50 µM and a TGI [18] of over 50 µM.
